# Assay results taken from ChEMBL document CHEMBL1201862, “PubChem BioAssay data set” (2004).
#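 Where inhibition never reached the appropriate level, the endpoint shown equals the highest concentration tested. Otherwise, values were interpolated linearly from a five-concentration, 48-hour dose response in 96-well plates. GI50 = concentration required for 50% inhibition of growth.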 Active and inactive are the calls of the source. Cut-off read from the data, not from the text of the source: active = GI50 up to about 1.1 µM and inactive = higher.
# Tests used:
# Test in all cases: inhibition of tumour cell growth, NCI panel, 48 h
# A549 = test system: A549
# EKVX = test system: EKVX
# 786-0 = test system: 786-0
# NCI-H522 = test system: NCI-H522
# SW-620 = test system: SW-620
# IGROV-1 = test system: IGROV-1
# HL-60 = test system: HL-60
# SK-MEL-28 = test system: SK-MEL-28
# SN12C = test system: SN12C
# SF-268 = test system: SF-268
# SNB-75 = test system: SNB-75
# PC-3 = test system: PC-3
# ACHN = test system: ACHN
# T47D = test system: T47D
# MDA-N = test system: MDA-N
# OVCAR-5 = test system: OVCAR-5
# RPMI-8226 = test system: RPMI-8226
# Hs-578T = test system: Hs-578T
# KM12 = test system: KM12
# OVCAR-4 = test system: OVCAR-4
# DU-145 = test system: DU-145
# OVCAR-8 = test system: OVCAR-8
# NCI-H460 = test system: NCI-H460
# NCI-H226 = test system: NCI-H226
# COLO 205 = test system: COLO 205
# CCRF-CEM = test system: CCRF-CEM
# K562 = test system: K562
# SF-295 = test system: SF-295
# SR = test system: SR
# SK-MEL-5 = test system: SK-MEL-5
# SK-MEL-2 = test system: SK-MEL-2
# HCT-15 = test system: HCT-15
# MOLT-4 = test system: MOLT-4
# NCI-H23 = test system: NCI-H23
# LOX IMVI = test system: LOX IMVI
# HOP-92 = test system: HOP-92
# U-251 = test system: U-251
# MCF7 = test system: MCF7
# MDA-MB-435 = test system: MDA-MB-435
# UACC-62 = test system: UACC-62
# HOP-62 = test system: HOP-62
# NCI/ADR-RES = test system: NCI/ADR-RES
# UACC-257 = test system: UACC-257
# HCT-116 = test system: HCT-116
# UO-31 = test system: UO-31
# SNB-19 = test system: SNB-19
# CAKI-1 = test system: CAKI-1
# HCC 2998 = test system: HCC 2998
# RXF 393 = test system: RXF 393
# A498 = test system: A498
# Malme-3M = test system: Malme-3M
# M14 = test system: M14
# OVCAR-3 = test system: OVCAR-3
# SF-539 = test system: SF-539
# MDA-MB-231 = test system: MDA-MB-231
# TK-10 = test system: TK-10
# BT-549 = test system: BT-549
# HT-29 = test system: HT-29
smiles,measurement,setting,value
OC1[C@H](O)CN(OCc2ccccc2)C[C@@H]1O (some centres undefined),GI50,A549,> 100 µM (inactive)
same,GI50,EKVX,> 100 µM (inactive)
same,GI50,786-0,> 100 µM (inactive)
same,GI50,NCI-H522,> 100 µM (inactive)
same,GI50,SW-620,> 100 µM (inactive)
same,GI50,IGROV-1,> 100 µM (inactive)
same,GI50,HL-60,> 100 µM (inactive)
same,GI50,SK-MEL-28,> 100 µM (inactive)
same,GI50,SN12C,> 100 µM (inactive)
same,GI50,SF-268,> 100 µM (inactive)
same,GI50,SNB-75,> 100 µM (inactive)
same,GI50,PC-3,> 100 µM (inactive)
same,GI50,ACHN,> 100 µM (inactive)
same,GI50,T47D,> 100 µM (inactive)
same,GI50,MDA-N,> 100 µM (inactive)
same,GI50,OVCAR-5,> 100 µM (inactive)
same,GI50,RPMI-8226,> 100 µM (inactive)
same,GI50,Hs-578T,> 100 µM (inactive)
same,GI50,KM12,> 100 µM (inactive)
same,GI50,OVCAR-4,> 100 µM (inactive)
same,GI50,DU-145,> 100 µM (inactive)
same,GI50,OVCAR-8,> 100 µM (inactive)
same,GI50,NCI-H460,> 100 µM (inactive)
same,GI50,NCI-H226,> 100 µM (inactive)
same,GI50,COLO 205,> 100 µM (inactive)
same,GI50,CCRF-CEM,> 100 µM (inactive)
same,GI50,K562,> 100 µM (inactive)
same,GI50,SF-295,> 100 µM (inactive)
same,GI50,SR,> 100 µM (inactive)
same,GI50,SK-MEL-5,> 100 µM (inactive)
same,GI50,SK-MEL-2,> 100 µM (inactive)
same,GI50,HCT-15,> 100 µM
same,GI50,MOLT-4,> 100 µM (inactive)
same,GI50,NCI-H23,> 100 µM (inactive)
same,GI50,LOX IMVI,> 100 µM (inactive)
same,GI50,HOP-92,> 100 µM (inactive)
same,GI50,U-251,> 100 µM (inactive)
same,GI50,MCF7,> 100 µM (inactive)
same,GI50,MDA-MB-435,> 100 µM (inactive)
same,GI50,UACC-62,> 100 µM (inactive)
same,GI50,HOP-62,> 100 µM (inactive)
same,GI50,NCI/ADR-RES,> 100 µM (inactive)
same,GI50,UACC-257,> 100 µM (inactive)
same,GI50,HCT-116,> 100 µM (inactive)
same,GI50,UO-31,> 100 µM (inactive)
same,GI50,SNB-19,> 100 µM (inactive)
same,GI50,CAKI-1,> 100 µM (inactive)
same,GI50,HCC 2998,> 100 µM (inactive)
same,GI50,RXF 393,> 100 µM (inactive)
same,GI50,A498,> 100 µM (inactive)
same,GI50,Malme-3M,> 100 µM (inactive)
same,GI50,M14,> 100 µM (inactive)
same,GI50,OVCAR-3,> 100 µM (inactive)
same,GI50,SF-539,> 100 µM (inactive)
same,GI50,MDA-MB-231,> 100 µM (inactive)
same,GI50,TK-10,> 100 µM (inactive)
same,GI50,BT-549,> 100 µM (inactive)
same,GI50,HT-29,> 100 µM (inactive)
CC(=O)OC[C@@H]1[C@H]2CC[C@]3(C)[C@@H](OC(C)=O)CC[C@H]3[C@@H]2CC[C@H]1C1(C)SCCS1,GI50,A549,> 25 µM (inactive)
same,GI50,EKVX,> 25 µM (inactive)
same,GI50,786-0,> 25 µM (inactive)
same,GI50,NCI-H522,> 25 µM (inactive)
same,GI50,SW-620,> 25 µM (inactive)
same,GI50,IGROV-1,> 25 µM (inactive)
same,GI50,HL-60,> 25 µM (inactive)
same,GI50,SK-MEL-28,> 25 µM (inactive)
same,GI50,SN12C,> 25 µM (inactive)
same,GI50,SF-268,> 25 µM (inactive)
same,GI50,SNB-75,> 25 µM (inactive)
same,GI50,PC-3,> 25 µM (inactive)
same,GI50,ACHN,> 25 µM (inactive)
same,GI50,T47D,> 25 µM (inactive)
same,GI50,MDA-N,> 25 µM (inactive)
same,GI50,OVCAR-5,> 25 µM (inactive)
same,GI50,RPMI-8226,> 25 µM (inactive)
same,GI50,Hs-578T,> 25 µM (inactive)
same,GI50,KM12,> 25 µM (inactive)
same,GI50,OVCAR-4,> 25 µM (inactive)
same,GI50,DU-145,> 25 µM (inactive)
same,GI50,OVCAR-8,> 25 µM (inactive)
same,GI50,NCI-H460,> 25 µM (inactive)
same,GI50,NCI-H226,> 25 µM (inactive)
same,GI50,COLO 205,> 25 µM (inactive)
same,GI50,CCRF-CEM,> 25 µM (inactive)
same,GI50,K562,> 25 µM (inactive)
same,GI50,SF-295,> 25 µM (inactive)
same,GI50,SR,> 25 µM (inactive)
same,GI50,SK-MEL-5,23.2 µM (inactive)
same,GI50,HCT-15,> 25 µM
same,GI50,MOLT-4,> 25 µM (inactive)
same,GI50,NCI-H23,> 25 µM (inactive)
same,GI50,LOX IMVI,> 25 µM (inactive)
same,GI50,HOP-92,> 25 µM (inactive)
same,GI50,U-251,> 25 µM (inactive)
same,GI50,MCF7,> 25 µM (inactive)
same,GI50,MDA-MB-435,> 25 µM (inactive)
same,GI50,HOP-62,> 25 µM (inactive)
same,GI50,NCI/ADR-RES,> 25 µM (inactive)
same,GI50,UACC-257,> 25 µM (inactive)
same,GI50,HCT-116,> 25 µM (inactive)
same,GI50,UO-31,> 25 µM (inactive)
same,GI50,SNB-19,> 25 µM (inactive)
same,GI50,CAKI-1,> 25 µM (inactive)
same,GI50,HCC 2998,> 25 µM (inactive)
same,GI50,RXF 393,> 25 µM (inactive)
same,GI50,A498,> 25 µM (inactive)
same,GI50,Malme-3M,> 25 µM (inactive)
same,GI50,M14,> 25 µM (inactive)
same,GI50,OVCAR-3,> 25 µM (inactive)
same,GI50,SF-539,> 25 µM (inactive)
same,GI50,MDA-MB-231,> 25 µM (inactive)
same,GI50,TK-10,> 25 µM (inactive)
same,GI50,BT-549,> 25 µM (inactive)
same,GI50,HT-29,> 25 µM (inactive)
